Values quoted from earlier work as cited in patent US20250222014A1, “COMPOSITION FOR LOCALIZED FAT REDUCTION WITHOUT PAIN, EDEMA AND SIDE EFFECTS AND METHOD OF ADMINISTRATION THEREOF” (AMI PHARM CO., LTD., priority 2024, published 2025).

Test system: adipocytes (3T3L1 adipocytes), normal fibroblasts, vascular endothelial cells and skeletal muscle cells
Settings: Gupta, Aest Plast Sur, 33:346-352, 2009

C[C@H](CCC(=O)O)[C@H]1CC[C@H]2[C@@H]3CC[C@@H]4C[C@H](O)CC[C@]4(C)[C@H]3C[C@H](O)[C@]12C [DCA, (4R)-4-[(3R,5R,8R,9S,10S,12S,13R,14S,17R)-3,12-dihydroxy-10,13-dimethyl-2,3,4,5,6,7,8,9,11,12,14,15, 16,17-tetradecahydro-1H-cyclopenta[a]phenanthren-17-yl] pentanoic acid]
cell lysis selectivity (cell-lytic rather than fat-dissolving): non-selectively dissolves not only adipocytes (3T3L1 adipocytes) but also normal fibroblasts, vascular endothelial cells and skeletal muscle cells
